Measured values from publication PMC6753678, “Fueling Open Innovation for Malaria Transmission-Blocking Drugs: Hundreds of Molecules Targeting Early Parasite Mosquito Stages” (Frontiers in Microbiology, 2019).
Where two headings read alike, the source gives them in different places.

Experiments:
[1] = test system: 3D7-strain P. falciparum asexual parasites; test: P. falciparum asexual growth inhibition assay (Pf GIA); type: cell-based, Plasmodium falciparum; conditions: dose response confirmation; read-out: Pf asexual growth inhibition assays IC50
How it was run: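 Parasites at 0.25% parasitemia, 2% hematocrit in Albumax-supplemented RPMI were exposed to compounds in dose response for 72 h at 37°C under 5% CO2/5% O2. Viability was read as LDH activity (NBT/diaphorase, A650 after freeze-thaw). Percent inhibition was calculated against chloroquine and DMSO controls, mean of three biological replicates.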

[2] = test system: HepG2 cells; test: HepG2 cytotoxicity assay; conditions: for IC50: read-out: HepG2 cytotoxicity assay IC50, dose response confirmation; for Pb ODA (this manuscript) HepG2 cytoxicity: HepG2 cytotoxicity listed with the Pb ODA data set (this manuscript)
How it was run: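 Cells at 2,500 per well in MEM with 10% fetal bovine serum and 1% NEAA were exposed to test compounds for 48 h at 37°C, 5% CO2. Viability was read by fluorescence, with percent inhibition calculated against 50 μM doxorubicin (positive) and DMSO (negative) controls.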

[3] = test system: P. berghei ookinete development; conditions: for % inhibition, Replicate A / % inhibition, Replicate B: primary screen at 1 μM
[4] = HepG2 values of the three screens unified
[5] = read-out: Pb ODA IC50, this manuscript
[6] = read-out: Pb Ookinete development assay IC50, dose response confirmation
[7] = read-out: Pb ODA (this manuscript) IC50, P. berghei ookinete development assay, this manuscript
[8] = unified HepG2 value across the three screens

Structure (SMILES) | IC50 [1] | HepG2 cytoxicity (Pb ODA, this manuscript) [2] | Unified cytotox [2, 4] | IC50 [2] | Is compound selective in assay? Pb ODA active? ([3]; 1: YES, 0: NO) | % inhibition, Replicate A [3] | % inhibition, Replicate B [3] | IC50 [3, 5] | IC50 [3, 6] | Pb ODA (this manuscript) HepG2 cytoxicity [2] | Is compound selective in assay? Pb ODA active? [3] | IC50 [3, 7] | Unified cytotox [2, 8]
COc1ccc2ncc(C#N)c(CCN3CCC(NCc4ccc5c(n4)NC(=O)CS5)CC3)c2n1.Cl [TCMDC-135188] | 2370 nM | 54.95 µM | 54.95 µM | 55000 nM | 1 (1: YES) | 67.48% | 73.91% | 770 nM | 768 nM |  |  |  | 
COc1c(C)[nH]c(C)c(-c2ccc(Oc3cccc(C(F)(F)F)c3)cc2)c1=O [TCMDC-135253] | 937 nM |  |  | 1300 nM |  | 56.53% | 75.40% |  | 3600 nM | 1.30 µM | 0 (key: 1: YES; 0: NO) | 3600 nM | 
Cc1[nH]c(C)c(-c2ccc(OCc3ccc(OC(F)(F)F)cc3)nc2)c(=O)c1Br [TCMDC-135254] | 122 nM | 87.10 µM | 87.10 µM | 87100 nM | 1 (1: YES) | 57.86% | 80.15% | 1680 nM | 1680 nM |  |  |  | 
Cc1[nH]c(C)c(-c2ccc(OCc3ccc(OC(F)(F)F)cc3)nc2)c(=O)c1Cl [TCMDC-135271] | 67 nM |  | 100.00 µM | 100000 nM | 1 (1: YES) | 71.19% | 76.52% | 1070 nM | 1070 nM |  |  |  | 
COc1cc(NC2=C(c3ccccc3)C(=O)c3ccccc32)ccn1 [TCMDC-135283] | 286 nM |  |  | 100000 nM |  | 80.47% | 74.75% |  | 743 nM | 100.00 µM | 1 (key: 1: YES; 0: NO) | 740 nM | 
CCNC(=O)Nc1ccc(-c2cnc(N)c(-c3nc4ccc(OC)cc4[nH]3)c2)cc1 [TCMDC-135321] | 364 nM |  |  | 6680 nM | 0 (0: NO) | 44.00% | 70.87% | 2330 nM | 2330 nM |  |  |  | 6.68 µM
COc1ccc2nc(-c3cc(-c4ccc(NC(=O)C(C)C)cc4)cnc3N)[nH]c2c1 [TCMDC-135322] | 277 nM |  |  | 8610 nM | 1 (1: YES) | 29.63% | 78.93% | 420 nM | 423 nM |  |  |  | 8.61 µM
COc1ccc2nc(-c3cc(-c4ccc(NC(C)=O)cc4)cnc3N)[nH]c2c1 [TCMDC-135365] | 1280 nM |  |  | 12000 nM | 1 (1: YES) | 88.78% | 104.70% | 440 nM | 442 nM |  |  |  | 12.02 µM
COc1cc(F)c2ncc(C#N)c(CCN3CCC(NCc4ccc5c(c4)OCCO5)CC3)c2c1.Cl [TCMDC-135367] | 640 nM |  |  | 38900 nM | 1 (1: YES) | 88.34% | 59.17% | 2170 nM | 2170 nM |  |  |  | 38.90 µM
Cc1cc(SC(C)(C)C)cc2c(Cl)c(C(N)=O)cnc12 [TCMDC-135415] | 69 nM |  |  | 1360 nM | 0 (0: NO) | 28.78% | 60.54% | 2710 nM | 2710 nM |  |  |  | 1.36 µM
Cc1[nH]c2ccc(-c3ccccc3)cc2c(=O)c1Br [TCMDC-135426] | 136 nM |  |  | 100000 nM | 1 (1: YES) | 84.59% | 99.51% | 1250 nM | 1250 nM |  |  |  | 100.00 µM
C=Cc1ccc(-c2c(C)[nH]c(C)c(Br)c2=O)cc1 [TCMDC-135433] | 433 nM |  |  | 57500 nM |  | 31.67% | 64.44% |  | 1240 nM | 57.54 µM | 1 (key: 1: YES; 0: NO) | 1240 nM | 
CCCCc1ccc(-c2ccc3[nH]c(C)c(Br)c(=O)c3c2)cc1 [TCMDC-135463] | 77 nM |  |  | 10000 nM | 0 (0: NO) | 56.53% | 70.28% | 2990 nM | 3000 nM |  |  |  | 10.00 µM
COc1ccc2ncc(F)c(CCN3CCC(NCc4ccc5c(c4)CCO5)CC3)c2n1.Cl [TCMDC-135491] | 879 nM |  |  | 31600 nM |  | 14.40% | 53.74% |  | 3390 nM | 31.62 µM | 0 (key: 1: YES; 0: NO) | 3390 nM | 
O=C(NCC1CC1)C1CCN(C(c2ccc(Cl)cc2)c2ccc(Cl)cc2)CC1 [TCMDC-135522] | 305 nM |  |  | 100000 nM | 1 (1: YES) | 38.16% | 71.31% |  | 1590 nM |  |  |  | 100.00 µM
Cc1[nH]c(C)c(-c2ccc(Nc3ccc(C(F)(F)F)cn3)cc2)c(=O)c1Br [TCMDC-135546] | 14 nM |  |  | 980 nM |  | 85.12% | 90.38% |  | 5.45 nM | 0.98 µM | 1 (key: 1: YES; 0: NO) |  | 
Cc1[nH]c(C)c([N+](=O)[O-])c(=O)c1-c1ccc(Oc2ccc(OC(F)(F)F)cc2)cc1 [TCMDC-135555] | 177 nM |  |  | 100000 nM |  | 67.14% | 51.32% |  | 2810 nM | 100.00 µM | 1 (key: 1: YES; 0: NO) | 2810 nM | 
COc1cc(F)c2ncc(Cl)c(CCN3CCC(NCc4ccc5c(c4)NC(=O)CS5)CC3)c2c1.Cl [TCMDC-135620] | 15 nM |  |  | 10600 nM | 1 (1: YES) | 131.37% | 63.52% | 470 nM | 467 nM |  |  |  | 10.59 µM
COc1cc(F)c2ncc(Cl)c(CCN3CCC(NCc4ccc5c(n4)NC(=O)CO5)CC3)c2c1.Cl [TCMDC-135621] | 2590 nM |  |  | 27200 nM |  | 69.33% | 64.08% |  | 1270 nM | 27.23 µM | 1 (key: 1: YES; 0: NO) |  | 
